Measurements reported in US12286632B2, “Rationally-designed synthetic peptide shuttle agents for delivering polypeptide cargos from an extracellular space to the cytosol and/or nucleus of a target eukaryotic cell, uses thereof, methods and kits relating to same” (Feldan Bio Inc., priority 2016, dated 2025).
Bridge positions count the residues as written; N and C are the ends. Ends that are not written are not given here. Peptide text beside a SMILES is read from it. I, II: the chains in the order shown.

Experiments:
HeLa cells = assay: GFP-NLS protein transduction assay (flow cytometry: Pos cells %, viability %, relative fluorescence intensity; microscopy); settings: for FIG. 21B Cell viability (%) (±St. Dev.; n = 3): Table 8.1, 1 hour
in vitro [1] = settings: human, HeLa cells
in vitro [2] = settings: human, HeLa cells; remark: listed apart in the source
[3] = Table 10.1, Protocol B, HeLa, shuttle 50 μM, GFP-NLS 5 μM, 10 seconds
[4] = Table 10.3a, Protocol B, HeLa, shuttle 50 μM, GFP-NLS 5 μM, 10 seconds
[5] = Cell viability (%) (±St. Dev.; n = 3)
[6] = Cell viability (%) (±St Dev.; n = 3)
[7] = Table 10.3e, Protocol B, HeLa, shuttle 20 μM, GFP-NLS 5 μM, 1 minute
[8] = Table B3, HeLa cells, GFP-NLS cargo

HHHHHHKWKLFKKIGAVLKVLTTGYGRKKRRQRRR [His-CM18-TAT]
FIG. 21B Cell viability (%) (±St. Dev.; n = 3) (HeLa cells; GFP-NLS 5 μM, HeLa, shuttle 1 μM): 95 ± 3.05%
FIG. 21B Cell viability (%) (±St. Dev.; n = 3) (HeLa cells; GFP-NLS 5 μM, HeLa, shuttle 3 μM): 91 ± 5.18%
FIG. 21B Cell viability (%) (±St. Dev.; n = 3) (HeLa cells; GFP-NLS 5 μM, HeLa, shuttle 5 μM): 86 ± 4.59%
Cell viability (%) (±St. Dev.; n = 3) (HeLa cells; [3]): 35.2 ± 5.7%
Cell viability (%) (±St. Dev.; n = 3) (HeLa cells; [4]): 35.2 ± 5.7%
viability (in vitro [1]): 13.6 ± 0.18%

LHHHSHHLIHIWLLFKLKLKKKKAARRARRARRHH [FSD29]
viability at 1 min, 10 µM (in vitro [2]; [5]): 89.8 ± 8.48%

HHHHHHKRQLKRKLRKWKRLLRLLRLLARLWLHHHHHH [FSD4]
viability (in vitro [2]; [6]): 86.1 ± 8.15%

KWKLFKKIGAVLKVLTTGHHHHHHYARAAARQARA [CM18-His-PTD4]
Cell viability (%) (±St. Dev.; n = 3) (HeLa cells; [7]): 57.7 ± 4.2%

HHHHHHKWKLFKKIGAVLKVLTTGYARAAARQARACCCCCC (cysteines drawn unpaired) [His-CM18-PTD4-6Cys]
Mean % cells with GFP signal (±St Dev.; n = 3) (HeLa cells; [7]): 41.3 ± 4.28%

N=C(N)NCCC[C@H](NC(=O)[C@H](CCCNC(=N)N)NC(=O)[C@H](CCCNC(=N)N)NC(=O)[C@H](CCC(N)=O)NC(=O)[C@H](CCCNC(=N)N)NC(=O)[C@H](CCCNC(=N)N)NC(=O)[C@H](CCCCN)NC(=O)[C@H](CCCCN)NC(=O)[C@H](CCCNC(=N)N)NC(=O)CNC(=O)[C@@H](N)Cc1ccc(O)cc1)C(=O)O [TAT, reference compound]
Mean % cells with GFP signal (±St. Dev.; n = 3) (HeLa cells; Table 10.4, Protocol B, HeLa, peptide 50 μM, GFP-NLS 5 μM, 10 seconds): 1.1 ± 0.27%
GFP-NLS transduction (flow cytometry, in words) (HeLa cells; peptide 50 μM, GFP-NLS 5 μM, 10 seconds, Protocol B): not able to successfully transduce GFP-NLS
viability at 10 s, 50 µM (in vitro [2]): 94.6 ± 0.44%

HHHHHHWYLALLALYWQRAKAKTRQRRRHHHHHH [FSD6]
viability (in vitro [2]; [6]): 88.1 ± 7.66%

HHHHHHKKALLALALHHLAHLALHLALALKKAYARAAARQARA [His--PTD4]
Cell viability (%) (±St. Dev.; n = 3) (HeLa cells; [4]): 98 ± 1.5%

HHHHHHKWKLLRRAAKKAARRYLKLLLKQLKLHHHHHH [FSD1]
viability (in vitro [2]; [6]): 60.3 ± 6.18%

KWKLFKKIGAVLKVLTTGYARAAARQARA [CM18-PTD4]
Cell viability (%) (±St. Dev.; n = 3) (HeLa cells; [7]): 33.9 ± 3.7%
cell viability (HeLa cells; peptide 20 μM, GFP-NLS 5 μM, 1 minute, Protocol B (Table 10.3e)): 33.9%
viability (in vitro [1]): 49.6 ± 5.06%

HAHHAHHAHKWKLFKKIGAVLKVLTTGYARAAARQARA [3HA-CM18-PTD4]
Cell viability (%) (±St. Dev.; n = 3) (HeLa cells; [7]): 43.6 ± 2.8%
viability (in vitro [1]): 51.5 ± 4.83%

HHHHHHKWKLFKKIGAVLKVLTTGYARAAARQARAHHHHHH [His-CM18-PTD4-His]
Cell viability (%) (±St. Dev.; n = 3) (HeLa cells; Table 10.3c, Protocol B, HeLa, shuttle 10 μM, GFP-NLS 5 μM, incubation 1 min): 68.1 ± 2.7%
Cell viability (%) (±St. Dev.; n = 3) (HeLa cells; Table 10.3c, Protocol B, HeLa, shuttle 10 μM, GFP-NLS 5 μM, incubation 2 min): 61.6 ± 3.2%
Cell viability (%) (±St. Dev.; n = 3) (HeLa cells; Table 10.3c, Protocol B, HeLa, shuttle 10 μM, GFP-NLS 5 μM, incubation 5 min): 41.2 ± 4.4%
Cell viability (%) (±St. Dev.; n = 3) (HeLa cells; [7]): 78.6 ± 1.1%
viability (in vitro [1]): 29.4 ± 2.38%

WEAKLAKALAKALAKHLAKALAKALKACEA [KALA, reference compound]
viability (in vitro [1]): 90.6 ± 4.16%

HHHHHHKLKLRSRLKWGRTQLWRALAKKALLHHHHHH [FSN2]
Mean % cells with GFP signal (±St Dev.; n = 3) (HeLa cells; [8]): 12.13 ± 2.06%
viability (in vitro [2]; [5]): 91.3 ± 4.66%

RLHHSHHLIHIWLLFKLKLKKKKRAARRARRHHHL [FSD37]
viability at 1 min, 10 µM (in vitro [2]; [5]): 73.9 ± 2.62%

CSCC[C@H](NC(=O)[C@H](CCCCN)NC(=O)[C@H](CC(N)=O)NC(=O)[C@H](CC(C)C)NC(=O)[C@H](Cc1c[nH]c2ccccc12)NC(=O)[C@H](Cc1ccccc1)NC(=O)[C@H](CS)NC(=O)[C@H](CC(C)C)NC(=O)[C@H](Cc1ccccc1)NC(=O)[C@H](CCC(N)=O)NC(=O)[C@H](Cc1c[nH]cn1)NC(=O)[C@H](Cc1c[nH]cn1)NC(=O)[C@H](Cc1c[nH]cn1)NC(=O)[C@H](Cc1c[nH]cn1)NC(=O)[C@H](Cc1c[nH]cn1)NC(=O)[C@@H](N)Cc1c[nH]cn1)C(=O)NCC(=O)N[C@@H](CCCCN)C(=O)N[C@@H](Cc1c[nH]cn1)C(=O)N[C@@H](CC(N)=O)C(=O)N[C@H](C(=O)N[C@H](C(=O)N[C@@H](Cc1c[nH]c2ccccc12)C(=O)N[C@@H](Cc1c[nH]cn1)C(=O)NCC(=O)N[C@@H](CCCNC(=N)N)C(=O)N[C@@H](Cc1c[nH]cn1)C(=O)N[C@@H](CC(C)C)C(=O)N[C@@H](CCCCN)C(=O)N[C@@H](CS)C(=O)N[C@@H](Cc1c[nH]cn1)C(=O)N[C@@H](CCCCN)C(=O)N[C@@H](CCCNC(=N)N)C(=O)NCC(=O)N[C@@H](CCCCN)C(=O)NCC(=O)O)C(C)C)[C@@H](C)O [FSN3] (H-HHHHHHQFLCFWLNKMGKHNTVWHGRHLKCHKRGKG-OH; N-terminus and C-terminus assumed)
viability (in vitro [2]; [5]): 97.2 ± 2.03%

HHHHHHLLKLWSRLLKLWTQALRALAKRAKALAHHHHHH [FSN6]
Mean % cells with GFP signal (±St Dev.; n = 3) (HeLa cells; [8]): 15.74 ± 1.63%
viability (in vitro [2]; [5]): 32.6 ± 4.26%

KWKLFKKIGAVLKVLTTGYARAAARQARAHHHHHH [CM18-PTD4-His]
viability (in vitro [1]): 29.5 ± 0.21%

HHHHHHKRKRRSKKRKLWTQGWLLLALLALAHHHHHH [FSN1]
Mean % cells with GFP signal (±St Dev.; n = 3) (HeLa cells; [8]): 9.14 ± 0.93%
viability (in vitro [2]): 94.3 ± 3.07%

HHHHHHLAKLFKWLRALIRQGAKRKTKRASAHHHHHH [FSD17]
viability (in vitro [2]; [6]): 99.1 ± 2.09%

LIKLWSRFIKFWTQGRRIKAKLARAGQSWFG [FSN7]
viability (in vitro [2]; [5]): 93.5 ± 3.61%

HHHHHHKRKKKRRAKKKRAWLYLALLLWALALHHHHHH [FSD3]
viability (in vitro [2]; [6]): 91.1 ± 6.37%

HHHHHHKWKLFKKIGAVLKVLTTGGWTLNSAGYLLKINLKALAALAKKIL [His-CM18-Transportan]
viability (in vitro [1]): 11.9 ± 1.07%

HHHHHHKWKLFKKIGAVLKVLTTGGWTLNSAGYLLKINLKALAALAKKIL [His-CM18-Transportan (TPT)]
Cell viability (%) (±St. Dev.; n = 3) (HeLa cells; [3]): 41.3 ± 3.3%
Cell viability (%) (±St. Dev.; n = 3) (HeLa cells; [4]): 41.3 ± 3.29%

HHHHHHLLKLWRRLLKLFRKALRALAKRAKSALKRAQAA [FSN5]
viability (in vitro [2]; [5]): 85.4 ± 6.16%

HHHHHHFRKLWLAIVRAKK [FSN8]
viability (in vitro [2]; [5]): 94.5 ± 3.72%

CC(C)C[C@H](NC(=O)[C@H](CC(C)C)NC(=O)[C@H](CCCNC(=N)N)NC(=O)[C@H](CCCNC(=N)N)NC(=O)[C@H](Cc1c[nH]c2ccccc12)NC(=O)[C@H](CC(C)C)NC(=O)[C@H](Cc1ccc(O)cc1)NC(=O)[C@H](CC(C)C)NC(=O)[C@H](CC(C)C)NC(=O)[C@H](Cc1c[nH]cn1)NC(=O)[C@H](Cc1c[nH]cn1)NC(=O)[C@H](Cc1c[nH]cn1)NC(=O)[C@H](Cc1c[nH]cn1)NC(=O)[C@H](Cc1c[nH]cn1)NC(=O)[C@@H](N)Cc1c[nH]cn1)C(=O)N[C@@H](CCCCN)C(=O)N[C@@H](Cc1ccccc1)C(=O)N[C@@H](Cc1c[nH]c2ccccc12)C(=O)N[C@@H](CS)C(=O)N[C@@H](C)C(=O)NCC(=O)N[C@@H](CCCNC(=N)N)C(=O)N[C@@H](CCCNC(=N)N)C(=O)N[C@H](C(=O)N[C@@H](Cc1ccc(O)cc1)C(=O)N[C@@H](C)C(=O)N[C@@H](CCCCN)C(=O)N[C@@H](CS)C(=O)N[C@@H](C)C(=O)N[C@@H](CCCCN)C(=O)N[C@@H](C)C(=O)N[C@@H](Cc1ccc(O)cc1)C(=O)NCC(=O)N[C@@H](CS)C(=O)N[C@@H](Cc1ccccc1)C(=O)O)C(C)C [FSN4] (H-HHHHHHLLYLWRRLLKFWCAGRRVYAKCAKAYGCF-OH; N-terminus and C-terminus assumed)
Mean % cells with GFP signal (±St Dev.; n = 3) (HeLa cells; [8]): 5.84 ± 0.49%
viability (in vitro [2]; [5]): 90.5 ± 4.18%

MHHHHHHKWKLFKKIGAVLKVLTTGYGRKKRRQRRRC [M-His-CM18-TAT-Cys]
viability (in vitro [1]): 33.1 ± 0.4%

CC(C)C[C@H](NC(=O)[C@H](C)NC(=O)[C@H](CCCCN)NC(=O)[C@H](C)NC(=O)[C@H](CC(C)C)NC(=O)[C@H](CCCCN)NC(=O)[C@H](C)NC(=O)[C@H](CCC(=O)O)NC(=O)[C@H](Cc1c[nH]c2ccccc12)NC(=O)CNC(=O)[C@@H](NC(=O)[C@@H]1CCCN1C(=O)[C@H](CCCNC(=N)N)NC(=O)[C@H](CC(C)C)NC(=O)[C@H](CS)NC(=O)[C@@H](N)CC(C)C)C(C)C)C(=O)N[C@@H](C)C(=O)N[C@@H](CCCCN)C(=O)N[C@@H](C)C(=O)N[C@@H](CC(C)C)C(=O)N[C@@H](C)C(=O)N[C@@H](CCCCN)C(=O)N[C@@H](Cc1c[nH]cn1)C(=O)N[C@@H](CC(C)C)C(=O)N[C@@H](C)C(=O)N[C@@H](CCCCN)C(=O)N[C@@H](C)C(=O)N[C@@H](CC(C)C)C(=O)N[C@@H](C)C(=O)N[C@@H](CCCCN)C(=O)N[C@@H](C)C(=O)N[C@@H](CC(C)C)C(=O)N[C@@H](CCCCN)C(=O)N[C@@H](C)C(=O)N[C@@H](CS)C(=O)N[C@@H](CCC(=O)O)C(=O)N[C@@H](C)C(=O)O [Xentry-KALA] (H-LCLRPVGWEAKLAKALAKALAKHLAKALAKALKACEA-OH)
viability (in vitro [1]): 75.3 ± 4.29%

MHHHHHHKWKLFKKIGAVLKVLTTGYARAAARQARAC [Met-His-CM18-PTD4-Cys]
Mean % cells with GFP signal (±St Dev.; n = 3) (HeLa cells; [7]): 45.6 ± 3.88%

HHHHHHLALARWARYFRILAKLKRTKRGQAKAHHHHHH [FSD14]
viability (in vitro [2]; [6]): 92.8 ± 7.42%

I: KWKLFKKIGAVLKVLTTGRQIKIWFQNRRMKWKKC / II: KWKLFKKIGAVLKVLTTGRQIKIWFQNRRMKWKKC (disulfide I:35-II:35) [dCM18-Pen-Cys]
viability (in vitro [1]): 3.36 ± 0.26%

HHHHHHKWAKLLRAFAKAIKKLYARLARRQARTGHHHHHH [FSD13]
viability (in vitro [2]; [6]): 49.5 ± 5.13%

HHHHHHKWKLFKKIGAVLKVLTTGYGRKKRRQRRRC [His-CM18-TAT-Cys]
Mean % cells with GFP signal (±St. Dev.; n = 3) (HeLa cells; [4]): 49.3 ± 4.1%
viability at 10 s, 50 µM (in vitro [2]): 41.4 ± 3.91%
